{
  "source": "patent US20230027854A1",
  "about": "“ISOXAZOLE DERIVATIVES TARGETING TACC3 AS ANTICANCER AGENTS” (A2A Pharmaceuticals, inc., priority 2019, published 2023)",
  "key": {"JIMT-1 cells [1]": {"test_system": "JIMT-1 cells", "assay": "Colony formation assay", "assay_type": "cell-based, human", "details": "12 days", "method": "For monolayer culture, single-cell suspensions of JIMT-1 cells (3×10^3 cells/well) were plated in a 12-well plate. […] In order to test the colony formation capacity of MCF-12A cells during TACC3 overexpression, MCF-12A cells (2×10^5) were seeded into 6-well plates and TACC3 trasnfection was performed next day. 48 h following transfection, cells were counted and 1×10^3 cells/well were plated into 12-well plates. For both experimental setups, the media were refreshed every 4 days, and cells were incubated for 12 days. Cells were then fixed with 2% paraformaldehyde for 15 min and stained with 1% crystal violet (Merck, Darmstadt, Germany) for 15 min at RT. Surviving colonies (composed of at least 50 cells) were counted with ImageJ software (NIH)."}, "JIMT-1 cells [2]": {"test_system": "JIMT-1 cells", "assay": "Immunofluorescence of aberrant spindle formation", "assay_type": "cell-based, human", "details": "highest dose, 12 h", "text": "The presence of spindle defects activates the spindle assembly checkpoint (SAC) that further leads to mitotic arrest to provide the necessary time for repairing the spindle defects (Musacchio and Salmon 2007). […] To further test the contribution of an active SAC signaling to compound 5-induced mitotic arrest, DNA damage and cell death, we inhibited the SAC kinase, Mps1 using a specific inhibitor (TC Mps1 (Choi, Min et al. 2017)) in compound 5-treated cells, and analyzed the expression of relevant markers.\nImmunofluorescence staining of JIMT-1 cells were performed as previously described (Cizmecioglu, Arnold et al. 2010). Basically, 1.5×10^5 JIMT-1 cells/well were seeded on glass coverslip in 6-well plates. […] Then, they are fixed with ice-cold methanol for 10 min at −20° C. Cells were then blocked with 3% BSA in PBS solution for 1 hour at RT and incubated with primary and secondary antibodies for 1 hour at RT. Cells were counter stained with DAPI for 5 min (0.01 μg/ml). Lastly, cover slides were mounted using ImmunoHistomounth (Santa Cruz). Images were taken with an upright fluorescent microscope equipped with DIC prisms (upright)."}, "NCI-60 human cell lines": {"test_system": "NCI-60 human cell lines", "assay": "NCI-60 five-dose screen", "assay_type": "cell-based", "method": "Detailed screening methodology can be accessed from https://dtp.cancer.gov/discovery_development/nci-60/methodology.htm webpage. Briefly, 24 h after cell seeding into 96-well plates, cells were treated with 5-log M concentration range of the compound for 2 days. Cytotoxicity was assessed using SRB assay. The data presented in the FIG.s are the average values of both experiments."}, "MCF-12A": {"test_system": "MCF-12A", "assay": "Cell viability of normal breast epithelial cells", "assay_type": "cell-based, human", "details": "5, 10 μM", "method": "Next, the specificity of compound 5 towards cancer cell lines over normal cells were tested. […] To test the transforming potential of TACC3 and dependency of cells to TACC3 to survive, we performed a clonogenic growth assay in MCF-12A cells after overexpressing TACC3. […] To exclude the possibility that the differences we observed between cancer and normal cells are due to the differences in the proliferation rates of these cells, we calculated their doubling times."}, "[3]": {"method": "Mice body weight was measured regularly, and organs were collected for determination of possible toxicity."}, "[4]": {"assay": "Kinetic solubility in sodium phosphate buffer", "assay_type": "physicochemical", "details": "pH 7.4, 25° C., 2 h"}, "[5]": {"assay": "Stability in human liver microsomes", "assay_type": "in vitro ADME"}, "CYP2C9": {"target": "CYP2C9 (Homo sapiens, UniProt P11712)", "sequence (P11712 whole entry)": "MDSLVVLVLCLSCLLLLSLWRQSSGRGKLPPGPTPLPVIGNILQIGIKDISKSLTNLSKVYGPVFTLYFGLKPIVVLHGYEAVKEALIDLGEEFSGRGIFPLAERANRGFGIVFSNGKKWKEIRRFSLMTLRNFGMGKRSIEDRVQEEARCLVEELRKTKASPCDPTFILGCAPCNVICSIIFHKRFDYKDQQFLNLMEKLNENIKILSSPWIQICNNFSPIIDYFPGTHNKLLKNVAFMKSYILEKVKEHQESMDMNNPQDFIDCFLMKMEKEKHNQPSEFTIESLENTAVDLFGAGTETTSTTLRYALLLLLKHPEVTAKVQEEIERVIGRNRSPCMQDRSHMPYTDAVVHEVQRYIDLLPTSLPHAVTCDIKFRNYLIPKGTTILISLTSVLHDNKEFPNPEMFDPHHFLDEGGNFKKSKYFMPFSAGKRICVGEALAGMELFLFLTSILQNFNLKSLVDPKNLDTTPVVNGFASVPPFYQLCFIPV", "details": "read-out: IC50 CYP2C9; human liver microsomes"}, "CYP2CD6": {"target": "CYP2CD6 (Homo sapiens, UniProt P10635)", "sequence (P10635 whole entry)": "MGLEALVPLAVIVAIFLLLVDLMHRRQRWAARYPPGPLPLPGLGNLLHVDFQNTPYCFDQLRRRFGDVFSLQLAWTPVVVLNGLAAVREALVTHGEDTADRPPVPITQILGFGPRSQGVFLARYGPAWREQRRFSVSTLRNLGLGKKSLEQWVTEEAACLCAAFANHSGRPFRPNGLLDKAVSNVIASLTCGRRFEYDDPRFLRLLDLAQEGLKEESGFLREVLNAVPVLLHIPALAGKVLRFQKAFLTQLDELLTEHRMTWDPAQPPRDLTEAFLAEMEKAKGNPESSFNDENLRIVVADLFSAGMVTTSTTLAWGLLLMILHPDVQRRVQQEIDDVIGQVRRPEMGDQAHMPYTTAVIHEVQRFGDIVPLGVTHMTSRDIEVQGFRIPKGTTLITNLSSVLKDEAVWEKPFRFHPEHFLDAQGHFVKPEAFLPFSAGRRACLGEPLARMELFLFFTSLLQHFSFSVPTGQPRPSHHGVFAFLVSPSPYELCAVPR", "details": "read-out: IC50 CYP2CD6; human liver microsomes"}, "TACC3": {"target": "TACC3 (Homo sapiens, UniProt Q9Y6A5)", "assay": "Cellular thermal shift assay (CETSA) in intact JIMT-1 cells", "assay_type": "binding", "design": "endogenous in cells; host or cells: JIMT-1", "details": "1 μM, 6 h", "text": "Protein thermal melting curves are also showing a thermal shift between vehicle and compound 5 treated band intensities. This interaction was also validated with isothermal titration calorimetry (ITC). […] DARTS is a label free-strategy to identify potential direct protein targets for small molecules and is based on stabilization and protection from proteolysis of the target protein upon binding to small molecules (Lomenick, Jung et al. 2011, Pai, Lomenick et al. 2015).\nAfter treatment, cell pellets were resuspended in Tris-buffered saline (TBS) containing protease and phosphatase inhibitors. The cell suspension was divided into 6 PCR tubes and heated for 5 min to 45, 46, 47, 48, 49, 50° C. Subsequently, cells were lysed by three repeated freeze-thaw cycles with liquid nitrogen. Soluble proteins were collected with centrifugation at 20,000 g for 20 min at 4° C. and analyzed by sodium dodecyl sulfate polyacrylamide gel electrophoresis (SDS-PAGE) followed by western blot analysis."}},
  "data": [
    {"smiles": "COc1ccc(-c2cc(Nc3ccnc(N4CCOCC4)n3)on2)cc1", "note": "[Compound 5]", "values": [
      {"measurement": "average colony number compared with other two inhibitors at the same doses", "setting": "JIMT-1 cells [1]", "value": "significantly lower"},
      {"measurement": "frequency of multipolar spindles", "setting": "JIMT-1 cells [2]", "value": 73.4, "unit": "%"},
      {"measurement": "share of NCI-60 cell lines with less than 1 μM GI50 value", "setting": "NCI-60 human cell lines", "value": "~90", "unit": "%"},
      {"measurement": "GI50", "setting": "NCI-60 human cell lines; Homo sapiens, read-out: 50% growth inhibition (GI50) value, almost all cell lines", "value": "< 1", "unit": "µM"},
      {"measurement": "growth inhibition of cells at high doses", "setting": "MCF-12A", "value": "did not reach to 50% growth inhibition"},
      {"measurement": "body weight and observable toxicity", "setting": "[3]; 100 mg/kg daily for 7 days", "value": "did not affect body weight"},
      {"measurement": "organ toxicity", "setting": "[3]; 500 mg/kg once", "value": "no organ toxicity was observable"},
      {"measurement": "loss of body weight", "setting": "[3]; 500 mg/kg once, 24 h after drug treatment", "value": 10, "unit": "%"},
      {"measurement": "solubility", "setting": "[4]", "value": "low solubility"},
      {"measurement": "stability in human liver microsomes", "setting": "[5]", "value": "low stability"},
      {"measurement": "IC50", "setting": "CYP2C9", "value": 2.63, "unit": "µM"},
      {"measurement": "IC50", "setting": "CYP2CD6", "value": 18.5, "unit": "µM"},
      {"measurement": "stabilization of cellular TACC3 upon temperature increase", "setting": "TACC3", "value": "considerably stabilized cellular TACC3"}
    ]}
  ]
}
